This is an account of results in patent publication US10285983B2, “3-(1H-pyrrolo[2,3-B]pyridin-2-yl)-1H-pyrazolo[3,4-B] pyridines and therapeutic uses thereof” (Samumed, LLC, priority 2015, dated 2019).

The subject of experiment [1] is primary human fibroblasts derived from IPF patients (LL29 cells). Put plainly: Inhibition of fibrotic process, αSMA staining in TGF-β1 treated LL29 fibroblasts. The experiment is classed as cell-based. The note with it: Fibroblast, 96 h, TGF-β1 20 ng/mL, 4 days; for EC50: % αSMA positive cells; for inhibition at 10 µM: given for EC50 >10 μM, read-out: percent inhibition at 10 μM. The text has this: Representative compounds were screened using primary human fibroblasts (derived from IPF patients) treated with TGF-β1 to determine their ability to inhibit the fibrotic process.
Primary human fibroblasts derived from IPF patients (LL29 cells) [^1Xiaoqiu Liu, et. al., “Fibrotic Lung Fibroblasts Show Blunted Inhibition by cAMP Due to Deficient cAMP Response Element-Binding Protein Phosphorylation”, Journal of Pharmacology and Experimental Therapeutics (2005), 315(2), 678-687; ^2Watts, K. L., et. al., “RhoA signaling modulates cyclin D1 expression in human lung fibroblasts; implications for idiopathic pulmonary fibrosis”, Respiratory Research (2006), 7(1), 88] were obtained from American Type Culture Collection (ATCC) and expanded in F12 medium supplemented with 15% Fetal Bovine Serum and Penicillin/Streptomycin.
Each compound was dissolved in DMSO as a 10 mM stock and used to prepare compound source plates. Serial dilution (1:2, 11-point dose-response curves from […] to […]) and compound transfer was performed using the ECHO 550 (Labcyte, Sunnyvale, Calif.) into 384-well clear bottom assay plates (Greiner Bio-One) with appropriate DMSO backfill for a final DMSO concentration of 0.1%. LL29 cells are plated at 1,500 cells/well in 80 μL/well F12 medium supplemented with 1% Fetal Bovine Serum. One hour after addition of the cells, TGF-β1 (Peprotech; 20 ng/mL) was added to the plates to induce fibrosis (ref. 1 and 2 above). Wells treated with TGF-β1 and containing DMSO were used as controls. Cells were incubated at 37° C. and 5% CO2 for 4 days. Following incubation for 4 days, SYTOX green nucleic acid stain (Life Technologies [Thermo Fisher Scientific]) was added to the wells at a final concentration of 1 μM and incubated at room temperature for 30 min. Cells were then fixed using 4% formaldehyde (Electron Microscopy Sciences), washed 3 times with PBS followed by blocking and permeabilization using 3% Bovine Serum Albumin (BSA; Sigma) and 0.3% Triton X-100 (Sigma) in PBS. Cells were then stained with antibody specific to α-smooth muscle actin (αSMA; Abcam) (ref. 1 and 2 above) in 3% Bovine Serum Albumin (BSA; Sigma) and 0.3% Triton X-100 (Sigma) in PBS, and incubated overnight at 4° C. Cells were then washed 3 times with PBS, followed by incubation with Alexa Flor-647 conjugated secondary antibody (Life Technologies [Thermo Fisher Scientific]) and DAPI at room temperature for 1 hour. Cells were then washed 3 times with PBS and plates were sealed for imaging. αSMA staining was imaged by excitation at 630 nm and emission at 665 nm and quantified using the Compartmental Analysis program on the CellInsight CX5 (Thermo Scientific). Dead or apoptotic cells were excluded from analysis based on positive SYTOX green staining. % of total cells positive for αSMA were counted in each well and normalized to the average of 11 wells treated with TGF-β1 on the same plate using Dotmatics' Studies Software. The normalized averages (fold change over untreated) of 3 replicate wells for each compound concentration were used to create dose-responses curves and EC50 values were calculated using non-linear regression curve fit in the Dotmatics' Studies Software. For EC50 of >10 μM, the percent inhibition at 10 μM is provided.

The subject of experiment [2] is IL-6 (THP-1 human monocyte cell line). The experiment is described as follows: IL-6 inhibition in LPS-stimulated THP-1 cells (HTRF). The experiment is classed as cell-based. The settings on record: LPS 500 ng/mL; for EC50: 22 hours, IL6 HTRF; for inhibition at 10 µM: given for EC50 >10 μM, read-out: percent inhibition at 10 μM. As to the method:
Human monocyte cell line (THP-1 cells; Catalog # TIB-202, ATCC, Manassas, Va.) were cultured in Roswell Park Memorial Institute (RPMI) 1640 Medium (Catalog #21870-100, Buffalo, N.Y.) with 1% L-glutamine, 1% HEPES, 1% Sodium Pyruvate, 2% Sodium Bicarbonate supplemented with 100 units/mL penicillin, 50 μg/mL streptomycin, 2-mercaptoethanol (0.05 mM) [basal medium] and 10% fetal bovine serum (Catalog #16140089, Life Technologies, Carlsbad, Calif.) at 37° C. and 5% CO2.
THP-1 cells were cultured in basal media with 1% FBS for 24 hours before the start of the assay. Each compound was dissolved in DMSO as a 10 mM stock and used to prepare compound source plates. Serial dilution (1:3, 10-point dose-response curves starting from […]) and compound transfer was performed using the ECHO 550 (Labcyte, Sunnyvale, Calif.) into 384-well white low volume assay plates (Greiner Bio-One) with appropriate DMSO backfill for a final DMSO concentration of 0.1%. THP-1 cells were plated at 5000 cells/well in the 384-well plates and incubated at 37° C. for 2 h. 500 ng/mL of LPS was added after 2 hours and cells were incubated for another 22 hours at 37° C. Plates were spun in a centrifuge for 1 minute at 10,000 rpm and a mixture of anti-IL6 XL665, and anti-IL6 Cryptate diluted in reconstitution buffer (Cisbio Inc.) was added to each well. Following incubation for 3 hrs at room temperature, Homogeneous Time-Resolved Fluorescence (HTRF) was measured using the Envision (Perkin Elmer) at 665 nm and […]. The ratio of fluorescence at 665 nm to 620 nm was used as a readout for IL6 quantification. All samples were processed in duplicate. Readings were normalized to DMSO treated cells and normalized activities were utilized for EC50 calculations using the dose-response log (inhibitor) vs. response—variable slope (four parameters) nonlinear regression feature available in GraphPad Prism 5.0 (or Dotmatics). For EC50 of >10 μM, the percent inhibition at 10 μM is provided.

Consider `Nc1cncc(-c2cnc3[nH]nc(-c4cc5c(-c6ccccc6F)ccnc5[nH]4)c3c2)c1` [Compound 59, 5-(3-(4-(2-Fluorophenyl)-1H-pyrrolo[2,3-b]pyridin-2-yl)-1H-pyrazolo[3,4-b]pyridin-5-yl)pyridin-3-amine], for which, in experiment [1], the EC50 is above 10 µM and the inhibition at 10 µM is 0%. Moreover, in experiment [2], the EC50 was above 10 µM and the inhibition at 10 µM is 34.8%.

With `CCNCc1cncc(-c2cnc3[nH]nc(-c4cc5c(-c6ccccc6F)ccnc5[nH]4)c3c2)c1` [Compound 62, N-((5-(3-(4-(2-Fluorophenyl)-1H-pyrrolo[2,3-b]pyridin-2-yl)-1H-pyrazolo [3,4-b]pyridin-5-yl)pyridin-3-yl)methyl)ethanamine], in experiment [1], the EC50 is above 10 µM and the inhibition at 10 µM was 0%. Also, in experiment [2], the EC50 is above 10 µM and the inhibition at 10 µM came to 13.3%.

`CN(C)c1cncc(-c2cnc3[nH]nc(-c4cc5c(-c6ccccc6F)ccnc5[nH]4)c3c2)c1` [Compound 63, 5-(3-(4-(2-Fluorophenyl)-1H-pyrrolo[2,3-b]pyridin-2-yl)-1H-pyrazolo[3,4-b]pyridin-5-yl)-N,N-dimethylpyridin-3-amine]: in experiment [1], the EC50 was above 10 µM and the inhibition at 10 µM stood at 0%. In experiment [2], the EC50 is above 10 µM and the inhibition at 10 µM is 11.3%.

For the compound `CC(C)C(=O)Nc1cncc(-c2cnc3[nH]nc(-c4cc5c(-c6ccccc6F)ccnc5[nH]4)c3c2)c1` [Compound 65, N-(5-(3-(4-(2-Fluorophenyl)-1H-pyrrolo[2,3-b]pyridin-2-yl)-1H-pyrazolo [3,4-b]pyridin-5-yl)pyridin-3-yl)isobutyramide], the EC50 in experiment [1] was 0.812 µM; in experiment [2], above 10 µM. In addition, in experiment [2], the inhibition at 10 µM came to 25.6%.

Regarding `CC(C)Nc1cncc(-c2cnc3[nH]nc(-c4cc5c(-c6ccccc6F)ccnc5[nH]4)c3c2)c1` [Compound 68, 5-(3-(4-(2-Fluorophenyl)-1H-pyrrolo[2,3-b]pyridin-2-yl)-1H-pyrazolo[3,4-b]pyridin-5-yl)-N-isopropylpyridin-3-amine], the EC50 in experiment [1] is 8.54 µM. In addition, in experiment [2], the EC50 was above 10 µM and the inhibition at 10 µM was 42.9%.

`CC(C)(C)CC(=O)Nc1cncc(-c2cnc3[nH]nc(-c4cc5c(-c6ccccc6F)ccnc5[nH]4)c3c2)c1` [Compound 72, N-(5-(3-(4-(2-Fluorophenyl)-1H-pyrrolo[2,3-b]pyridin-2-yl)-1H-pyrazolo [3,4-b]pyridin-5-yl)pyridin-3-yl)-3,3-dimethylbutanamide] showed a concentration giving a half-maximal response (EC50) in experiment [1] of 0.759 µM. For the same compound, in experiment [2], the EC50 is above 10 µM and the inhibition at 10 µM came out at 38.1%.

As to `CCCCC(=O)Nc1cncc(-c2cnc3[nH]nc(-c4cc5c(-c6ccccc6F)ccnc5[nH]4)c3c2)c1` [Compound 75, N-(5-(3-(4-(2-Fluorophenyl)-1H-pyrrolo[2,3-b]pyridin-2-yl)-1H-pyrazolo [3,4-b]pyridin-5-yl)pyridin-3-yl)pentanamide], the concentration for a half-maximal effect (EC50) in experiment [1] and in experiment [2] was above 10 µM each time. The inhibition at 10 µM in experiment [1] was 0%; in experiment [2], 33.8%.

On to `O=C(Nc1cncc(-c2cnc3[nH]nc(-c4cc5c(-c6ccccc6F)ccnc5[nH]4)c3c2)c1)C1CCCC1` [Compound 78, N-(5-(3-(4-(2-Fluorophenyl)-1H-pyrrolo[2,3-b]pyridin-2-yl)-1H-pyrazolo [3,4-b]pyridin-5-yl)pyridin-3-yl)cyclopentanecarboxamide], for which the half-maximal effective concentration (EC50) in experiment [1] is 7.09 µM; in experiment [2] it was 0.627 µM.

Take `CC(C)CC(=O)Nc1cncc(-c2cnc3[nH]nc(-c4cc5c(-c6cccnc6)ccnc5[nH]4)c3c2)c1` [Compound 86, 3-Methyl-N-(5-(3-(4-(pyridin-3-yl)-1H-pyrrolo[2,3-b]pyridin-2-yl)-1H-pyrazolo[3,4-b]pyridin-5-yl)pyridin-3-yl)butanamide]: the EC50 in experiment [1] and in experiment [2] was above 10 µM in each case. The figures for the inhibition at 10 µM in experiment [1] and in experiment [2] were 0% and 34.3%, respectively.
